Experimental data taken from patent US8394788B2, “Phenylsulfoxyoxazole compound inhibitors of urea transporters” (The Regents of the University of California, priority 2006, dated 2013).

tested on: RBC urea transport; experiment: not given; settings: 23° C.; cited from earlier work

In the case of CNC(N)=O [N-methylurea], the apparent affinity is listed as “approximately 100 mM”.
In the case of NC(N)=O [urea], the apparent affinity is listed as “approximately 200 mM”.

target: T1, UT-B (Homo sapiens, UniProt Q13336); experiment: RBC lysis assay (human RBCs, acetamide-loaded); settings: not given
T1 sequence (Q13336 1-389): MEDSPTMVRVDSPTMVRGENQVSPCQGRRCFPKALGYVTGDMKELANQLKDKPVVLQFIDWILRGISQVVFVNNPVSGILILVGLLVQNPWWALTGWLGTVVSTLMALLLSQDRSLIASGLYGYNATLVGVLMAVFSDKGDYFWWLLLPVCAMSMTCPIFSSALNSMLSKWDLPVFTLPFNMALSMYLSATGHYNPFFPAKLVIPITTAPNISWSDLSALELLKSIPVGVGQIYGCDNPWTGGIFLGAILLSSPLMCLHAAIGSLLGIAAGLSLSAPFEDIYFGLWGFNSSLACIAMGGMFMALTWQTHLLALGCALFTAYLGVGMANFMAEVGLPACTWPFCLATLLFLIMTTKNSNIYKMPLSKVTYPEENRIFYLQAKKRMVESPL

O=S(=O)(c1ccccc1)c1nc(-c2ccc(F)cc2)oc1N1CCCCCC1 [ureainh-128, 5-(azepan-1-yl)-2-(4-fluorophenyl)-4-(phenylsulfonyl)oxazole] and Cc1ccc(-c2nc(S(=O)(=O)c3ccccc3)c(N3CCCCCC3)o2)cc1 [ureainh-127, 5-(azepan-1-yl)-4-(phenylsulfonyl)-2-p-tolyloxazole] are the same in EC50: 10 µM for the first, 10 µM for the second.

Going from Cc1ccc(-c2nc(S(=O)(=O)c3ccc(C)cc3)c(SCC(N)=O)o2)cc1 [ureainh-110, 2-(2-p-tolyl-4-tosyloxazol-5-ylthio)acetamide] to Cc1ccc(-c2nc(S(=O)(=O)c3ccc(Br)cc3)c(SCC(N)=O)o2)cc1 [ureainh-109, 2-(4-(4-bromophenylsulfonyl)-2-p-tolyloxazol-5-ylthio)acetamide], the EC50 falls from 1 µM to 0.2 µM (5-fold). The second is the more potent here.

First: NC(=O)CSc1oc(-c2ccco2)nc1S(=O)(=O)c1ccc(Br)cc1 [ureainh-118, 2-(4-(4-bromophenylsulfonyl)-2-(furan-2-yl)oxazol-5-ylthio)acetamide]
Second: NC(=O)CSc1oc(-c2ccco2)nc1S(=O)(=O)c1ccc(Cl)cc1 [ureainh-117, 2-(4-(4-chlorophenylsulfonyl)-2-(furan-2-yl)oxazol-5-ylthio)acetamide]
The EC50 of the first is 2-fold higher: 0.2 µM for the first, 0.1 µM for the second. The second is the more potent here.

NC(=O)CSc1oc(-c2cccs2)nc1S(=O)(=O)c1ccc(F)cc1 [ureainh-115, 2-(4-(4-fluorophenylsulfonyl)-2-(thiophen-2-yl)oxazol-5-ylthio)acetamide] and Cc1ccc(S(=O)(=O)c2nc(-c3cccs3)oc2SCC(N)=O)cc1 [ureainh-114, 2-(2-(thiophen-2-yl)-4-tosyloxazol-5-ylthio)acetamide] are within 1.5-fold of each other in EC50: 0.6 µM for the first, 0.5 µM for the second.

First: O=S(=O)(c1ccc(Cl)cc1)c1nc(-c2ccccc2F)oc1NCc1ccccc1 [ureainh-120, N-benzyl-4-(4-chlorophenylsulfonyl)-2-(2-fluorophenyl)oxazol-5-amine]
Second: O=C(CSc1oc(-c2ccccc2)nc1S(=O)(=O)c1ccc(Cl)cc1)NCc1ccco1 [ureainh-122, 2-(4-(4-chlorophenylsulfonyl)-2-phenyloxazol-5-ylthio)-N-(furan-2-ylmethyl)acetamide]
The EC50 of the first is 15-fold lower: 1 µM for the first, 15 µM for the second.

Compared with O=S(=O)(c1ccccc1)c1nc(-c2ccccc2F)oc1N1CCOCC1 [ureainh-124, 4-(2-(2-fluorophenyl)-4-(phenylsulfonyl)oxazol-5-yl)morpholine], Cc1ccc(S(=O)(=O)c2nc(-c3ccccc3Cl)oc2N2CCOCC2)cc1 [ureainh-125, 4-(2-(2-chlorophenyl)-4-tosyloxazol-5-yl)morpholine] is 1.6-fold higher in EC50: 7 µM for the first, 11 µM for the second.

First: NC(=O)CSc1oc(-c2ccc(F)cc2)nc1S(=O)(=O)c1ccc(Cl)cc1 [ureainh-106, 2-(4-(4-chlorophenylsulfonyl)-2-(4-fluorophenyl)oxazol-5-ylthio)acetamide]
Second: Cc1ccc(-c2nc(S(=O)(=O)c3ccc(Cl)cc3)c(SCC(N)=O)o2)cc1 [ureainh-111, 2-(4-(4-chlorophenylsulfonyl)-2-p-tolyloxazol-5-ylthio)acetamide]
The EC50 of the first is 5-fold lower: 0.2 µM for the first, 1 µM for the second.

Compared with Cc1ccc(S(=O)(=O)c2nc(-c3ccccc3)oc2SCC(N)=O)cc1 [ureainh-103, 2-(2-phenyl-4-tosyloxazol-5-ylthio)acetamide], Cc1ccc(-c2nc(S(=O)(=O)c3ccccc3)c(SCC(N)=O)o2)cc1 [ureainh-112, 2-(4-(phenylsulfonyl)-2-p-tolyloxazol-5-ylthio)acetamide] is 150-fold higher in EC50: 0.1 µM for the first, 15 µM for the second. The first is the more potent here.

First: NC(=O)CSc1oc(-c2cccs2)nc1S(=O)(=O)c1ccc(Cl)cc1 [ureainh-113, 2-(4-(4-chlorophenylsulfonyl)-2-(thiophen-2-yl)oxazol-5-ylthio)acetamide]
Second: NC(=O)CSc1oc(-c2cccs2)nc1S(=O)(=O)c1ccccc1 [ureainh-116, 2-(4-(phenylsulfonyl)-2-(thiophen-2-yl)oxazol-5-ylthio)acetamide]
The EC50 of the first is 50-fold lower: 0.02 µM for the first, 1 µM for the second. The first is the more potent here.

First: NC(=O)CSc1oc(-c2ccccc2)nc1S(=O)(=O)c1ccccc1 [ureainh-104, 2-(2-phenyl-4-(phenylsulfonyl)oxazol-5-ylthio)acetamide]
Second: NC(=O)CSc1oc(-c2ccccc2)nc1S(=O)(=O)c1ccc(Cl)cc1 [ureainh-102, 2-(4-(4-chlorophenylsulfonyl)-2-phenyloxazol-5-ylthio)acetamide]
The EC50 of the first is 25-fold higher: 1 µM for the first, 0.04 µM for the second.

Going from CSc1[nH]c(-c2ccc(C)cc2)nc1S(=O)(=O)c1ccccc1 [ureainh-130, 5-(methylthio)-4-(phenylsulfonyl)-2-p-tolyl-1H-imidazole] to Cc1ccc(S(=O)(=O)c2nc(-c3ccccc3)[nH]c2S)cc1 [ureainh-131, 2-phenyl-4-tosyl-1H-imidazole-5-thiol], the EC50 rises from 2 µM to 6 µM (3-fold). The first is the more potent here.

Compared with O=C(Sc1[nH]c(-c2ccccc2)nc1S(=O)(=O)c1ccccc1)c1ccccc1 [ureainh-132, S-2-phenyl-4-(phenylsulfonyl)-1H-imidazol-5-yl benzothioate], NC(=O)CSc1oc(-c2ccc(F)cc2)nc1S(=O)(=O)c1ccccc1 [ureainh-108, 2-(2-(4-fluorophenyl)-4-(phenylsulfonyl)oxazol-5-ylthio)acetamide] is 2.1-fold higher in EC50: 7 µM for the first, 15 µM for the second.

Going from Cc1ccc(S(=O)(=O)c2nc(-c3ccc(F)cc3)oc2SCC(N)=O)cc1 [ureainh-105, 2-(2-(4-fluorophenyl)-4-tosyloxazol-5-ylthio)acetamide] to NC(=O)CSc1oc(-c2ccc(F)cc2)nc1S(=O)(=O)c1ccc(F)cc1 [ureainh-107, 2-(2-(4-fluorophenyl)-4-(4-fluorophenylsulfonyl)oxazol-5-ylthio)acetamide], the EC50 rises from 0.1 µM to 6 µM (60-fold). The first is the more potent here.

Compared with CN(C)c1oc(-c2ccccc2Cl)nc1S(=O)(=O)c1ccccc1 [ureainh-123, 2-(2-chlorophenyl)-N,N-dimethyl-4-(phenylsulfonyl)oxazol-5-amine], COc1ccccc1-c1nc(S(=O)(=O)c2ccccc2)c(N2CCCCCC2)o1 [ureainh-126, 5-(azepan-1-yl)-2-(2-methoxyphenyl)-4-(phenylsulfonyl)oxazole] is 2-fold higher in EC50: 5 µM for the first, 10 µM for the second. The first is the more potent here.

Compared with CSc1oc(-c2ccco2)nc1S(=O)(=O)c1ccc(Cl)cc1 [ureainh-129, 4-(4-chlorophenylsulfonyl)-2-(furan-2-yl)-5-(methylthio)oxazole], Cc1ccc(S(=O)(=O)c2nc(-c3ccco3)oc2SCC(N)=O)cc1 [ureainh-119, 2-(2-(furan-2-yl)-4-tosyloxazol-5-ylthio)acetamide] is 20-fold lower in EC50: 20 µM for the first, 1 µM for the second. The second is the more potent here.

Compound O=C(CSc1oc(-c2ccccc2)nc1S(=O)(=O)c1ccc(Br)cc1)NCc1ccco1 [ureainh-121, 2-(4-(4-bromophenylsulfonyl)-2-phenyloxazol-5-ylthio)-N-(furan-2-ylmethyl)acetamide] has an EC50 of 4 µM.
